± gives the expanded uncertainty stated by the source.
Columns and labels:
[1] = for mass density: 298.15 K, 101.33 kPa, Pycnometric method
[2] = refractive index (Na D-line) (dimensionless); conditions: 298.15 K; 101.33 kPa; Liquid; Standard Abbe refractometry

Structure (SMILES) | mass density ([1]; Crystal) [kg/m3] | Normal melting temperature ([1]; Crystal, visual observation) [°C] | mass density ([1]; Liquid) [kg/m3] | refractive index [2]
Oc1ccccc1O [1,2-benzenediol] | 1346 ± 2 | 106.10 ± 1.6 |  | 
CCCCOC(C)=O [butyl ethanoate] |  |  | 873.1 ± 2 | 1.393 ± 0.0004
CO [methanol] |  |  | 786.1 ± 2 | 1.3264 ± 0.0004
